According to paper PMC13403234, “Engineering Cathepsin S Selective Chemical Probes and Antibody−Drug Conjugates through Substrate Profiling with Unnatural Amino Acids” (Journal of Medicinal Chemistry, 2026):
*1 amine or outer side, *2 acyl side, *3 side chain or, on linkers, in order; H or OH if unused. Where a SMILES comes first, the peptide text is derived from it. [ ]: non-standard residue; d: D form. The star is where a group is joined. Dolaproine = CO[C@@H]([C@@H]1CCCN1)[C@@H](C)C(=O)O; Phe(F5) = N[C@@H](Cc1c(F)c(F)c(F)c(F)c1F)C(=O)O; Dil = CC[C@H](C)[C@H](NC)[C@@H](CC(=O)O)OC; PABC = O=C(OCc1ccc(N[*:1])cc1)[*:2]; X1 = C[C@@H](N*)[C@@H](O)c1ccccc1; Cit = NC(=O)NCCC[C@H](N)C(=O)O; NMeV = CN[C@H](C(=O)O)C(C)C; ClZ = O=C(OCc1ccccc1Cl)*

What was measured:
Cathepsin S [1] = biological target: T1, Cathepsin S (Homo sapiens, UniProt P25774); assay: Prodrug cleavage / MMAE release by LC-MS, cathepsin S; type: biochemical; conditions: prodrug 50 μM, pH 5.5, 37 °C, 0-120 min
T1 construct: made in house
Method: Cleavage assays were conducted at 37 °C in 1 mL reaction volumes using acetate buffer composed of 100 mM sodium acetate (pH 5.5), 100 mM NaCl, 1 mM EDTA, and 5 mM DTT. Buffers were prepared at room temperature and equilibrated before use. Prodrugs were initially dissolved in DMSO at a stock concentration of 10 mM, then diluted into the reaction buffer to a final concentration of 50 μM, maintaining a DMSO concentration below 0.5% (v/v). Reactions were initiated by the addition of recombinant cathepsin and carried out in glass LC-MS vials incubated at 37 °C. At specified time points (0, 5, 30, 60, and 120 min), aliquots were taken and directly injected into the LC-MS system without further processing. Quantification of MMAE release was based on absorbance at 220 nm. The area under the MMAE peak was integrated, and the amount of released MMAE was plotted as a function of time. Each time point was measured in triplicate, and results are presented as mean ± standard deviation (SD). A standard curve was prepared using free MMAE at concentrations of 1, 5, 10, 20, and 50 μM to enable accurate quantification of MMAE released from the prodrugs.

Cathepsin B [2] = biological target: T2, Cathepsin B (Homo sapiens, UniProt P07858); assay: Second-order rate constants of inhibition (kobs/[I]), cathepsin B; type: biochemical; parameters: made in house; conditions: for kobs/[I] Cath B: Figure 4D, Cy5- and BODIPY-labeled probes
Method: (§1) All kinetic studies were performed using an fMax fluorescence plate reader (Molecular Devices) in kinetic mode with 96- or 384-well plates. ACC fluorescence was monitored at excitation and emission wavelengths of 355 and 460 nm, respectively. Recombinant human cysteine cathepsins L, V, B, K, and S were expressed and purified as previously described. Prior to use, all cysteine cathepsins were titrated with E64 to normalize enzymatic activity. Assays for cathepsins were conducted in 100 mM sodium acetate buffer containing 10 mM NaCl and 10 mM DTT (pH 5.5). Breast cancer cell lysates (BT-474, MCF-7, MDA-MB-231) were prepared by culturing cells to confluence in the appropriate media, replacing media with PBS, and harvesting the cells using a cell scraper (without trypsin). The cells were pelleted by centrifugation (400 × g, 5 min), resuspended in PBS, and centrifuged again under the same conditions. After removal of the supernatant, the pellet was resuspended in cathepsin assay buffer (excluding DTT) and sonicated. Lysates were then clarified by centrifugation (12,000 × g, 5 min), and the supernatants were collected and stored at −80 °C until use. All enzymatic assays, including HyCoSuL library screening and kinetic analyses of synthetic substrates, inhibitors, probes and prodrugs, were conducted at 37 °C and repeated at least three times. Mean values are reported. Kinetic data were analyzed using GraphPad Prism software (version 10.4.1).
(§2) The second-order rate constants of inhibition (k obs/[I]) were determined for human recombinant cathepsins S, B, L, and V using their respective assay buffers. All measurements were performed under pseudo-first-order kinetic conditions, as previously described. Inhibitors or ABPs were serially diluted in assay buffer and transferred to a 96-well plate. Each well was supplemented with the fluorogenic substrate Cbz-Phe-Arg-AMC at a final concentration of 25 μM and preincubated for 15 min. In parallel, enzymes were preactivated in assay buffer for 15 min at room temperature. Following preincubation, the activated enzymes were added to the wells, and fluorescence was monitored immediately for 30 min. The k obs/[I] values (M^-1S^-1) were calculated from the progress curves and averaged from at least three independent experiments. Final inhibitor (or ABP) concentrations were maintained at a minimum of 5-fold excess relative to enzyme concentrations to ensure pseudo-first-order conditions. Results were analyzed in GraphPad Prism and are reported as mean ± standard deviation.

Cathepsin L [3] = biological target: T3, Cathepsin L (Homo sapiens, UniProt P07711); assay: Second-order rate constants of inhibition (kobs/[I]), cathepsin L; type: biochemical; conditions: for kobs/[I] Cath L: Figure 4D, Cy5- and BODIPY-labeled probes
T3 construct: made in house
Method: as §1, §2

Cathepsin S [4] = biological target: T1, Cathepsin S; assay: Second-order rate constants of inhibition (kobs/[I]), cathepsin S; type: biochemical; conditions: for kobs/[I] Cath S / Selectivity S to B / Selectivity S to V: Figure 4D; for kobs/[I] Cath S: Cy5- and BODIPY-labeled probes; for Selectivity S to B / Selectivity S to V: calculated from kobs/[I]; for Selectivity S to B: cathepsin S over cathepsin B; for Selectivity S to V: cathepsin S over cathepsin V
Method: as §1, §2

[5] = biological target: T4, active cathepsin S in MDA-MB-231 live cells (Homo sapiens, UniProt P25774); assay: Labeling of active cathepsin S in MDA-MB-231 live cells with Cy5 probes; type: cell-based; conditions: inhibitor 25 μM for 2 h, then OG-233 or OG-234 for 24 h
T4 construct: endogenous in cells; host or cells: MDA-MB-231
Method: 50,000 of MDA-MB-231 cells were seeded into 12-well plate and allowed to attach overnight. The next day, OG-233 and OG-234 probes (1 μM final concentration) were added to the cells and incubated for various times (from 0,5 h up to 24 h). Control cells were preincubated with cathepsin S inhibitors (JN1, JN4, JN7) at 25 μM for 2 h, and then incubated with OG-233 or OG-234 probes for 24 h. Next, cells were harvested and prepared for SDS-PAGE analysis as described in the above section. Electrophoresis was run for 25 min (4−12% Bis-Tris Plus 10-well gel, 200 V). Next, proteins were transferred onto the membrane (0.2 μm nitrocellulose membrane, 10 V, 60 min) and Ponceau S was used to verify equal loading and transfer. Membranes were then blocked with 5% BSA in TBS-T buffer for 1 h at RT. Membranes were next incubated anticathepsin S antibody (1:1,000, overnight, 4 °C), and the next day with a secondary antibody (IRDye 800CW, donkey anti-Goat) for 30 min at RT, and scanned at 680 and 800 nm using the Sapphire biomolecular imager (Azure Biosystems) to detect the Cy5 probes and cathepsin S. All images were analyzed with Image Studio software.

Cathepsin V [6] = biological target: T5, Cathepsin V (Homo sapiens, UniProt O60911); assay: Fluorogenic ACC substrate hydrolysis kinetics, cathepsin V; type: biochemical; parameters: kcat Cathepsin V: unit not given here; conditions: third-generation substrates, steady-state; for Km: Table S5; for kcat Cathepsin V: Table S6
T5 construct: made in house
Method: as §1
(§3) Peptide substrates for cathepsin S were designed based on P4-P1 specificity profiling and synthesized on Rink amide resin using standard Fmoc solid-phase peptide synthesis protocols. The resin was swollen in dichloromethane (DCM) and deprotected with 20% piperidine in DMF. Fmoc-ACC-OH was coupled twice using HOBt/DIC in DMF and allowed to react overnight. Subsequent Fmoc-protected amino acids were coupled sequentially using HATU and 2,4,6-collidine, with Fmoc deprotection after each step using 20% piperidine in DMF. Following chain assembly, the N-terminus was acetylated using AcOH/HBTU/DIPEA in DMF for 45 min. Peptides were cleaved from the resin using TFA/TIPS/H2O (95:2.5:2.5, v/v/v) for 2 h, precipitated in cold diethyl ether, lyophilized, and purified by preparative HPLC. […] Final compounds were dissolved in DMSO at 20 mM and stored at −80 °C. To evaluate substrate selectivity, each fluorogenic peptide (10 μM) was incubated with recombinant cysteine cathepsins (5 nM) in assay buffer at 37 °C. Fluorescence emission was recorded at 460 nm, and initial cleavage rates were reported as relative fluorescence units per second (RFU/s). For selected substrates, detailed kinetic parameters (k cat, KM, and k cat/KM) were determined as previously described.

Cathepsin S [7] = biological target: T1, Cathepsin S; assay: Fluorogenic ACC substrate hydrolysis kinetics, cathepsin S; type: biochemical; parameters: kcat Cathepsin S: unit not given here; conditions: third-generation substrates, steady-state; for Km: Table S5; for kcat Cathepsin S: Table S6
Method: as §1, §3

Cathepsin B [8] = biological target: T2, Cathepsin B; assay: Fluorogenic ACC substrate hydrolysis kinetics, cathepsin B; type: biochemical; parameters: made in house; kcat Cathepsin B: unit not given here; conditions: third-generation substrates, steady-state; for Km: Table S5; for kcat Cathepsin B: Table S6
Method: as §1, §3

Cathepsin L [9] = biological target: T3, Cathepsin L; assay: Fluorogenic ACC substrate hydrolysis kinetics, cathepsin L; type: biochemical; parameters: kcat Cathepsin L: unit not given here; conditions: third-generation substrates, steady-state; for Km: Table S5; for kcat Cathepsin L: Table S6
Method: as §1, §3

Cathepsin V [10] = biological target: T5, Cathepsin V; assay: Second-order rate constants of inhibition (kobs/[I]), cathepsin V; type: biochemical; conditions: Figure 4D; Cy5- and BODIPY-labeled probes
Method: as §1, §2

T5 sequence (O60911 114-334): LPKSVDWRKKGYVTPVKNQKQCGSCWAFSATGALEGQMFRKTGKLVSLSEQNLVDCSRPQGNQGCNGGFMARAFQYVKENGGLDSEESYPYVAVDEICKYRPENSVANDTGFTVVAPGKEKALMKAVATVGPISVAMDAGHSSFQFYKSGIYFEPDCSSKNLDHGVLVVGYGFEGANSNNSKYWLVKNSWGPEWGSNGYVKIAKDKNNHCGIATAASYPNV
T1 sequence (P25774 115-331): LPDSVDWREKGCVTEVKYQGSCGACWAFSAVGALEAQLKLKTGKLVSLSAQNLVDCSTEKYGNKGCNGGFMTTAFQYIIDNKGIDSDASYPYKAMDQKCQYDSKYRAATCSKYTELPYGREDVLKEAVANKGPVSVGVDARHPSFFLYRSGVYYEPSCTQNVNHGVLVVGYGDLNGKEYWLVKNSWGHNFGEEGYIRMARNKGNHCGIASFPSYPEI
T3 sequence (P07711 114-333): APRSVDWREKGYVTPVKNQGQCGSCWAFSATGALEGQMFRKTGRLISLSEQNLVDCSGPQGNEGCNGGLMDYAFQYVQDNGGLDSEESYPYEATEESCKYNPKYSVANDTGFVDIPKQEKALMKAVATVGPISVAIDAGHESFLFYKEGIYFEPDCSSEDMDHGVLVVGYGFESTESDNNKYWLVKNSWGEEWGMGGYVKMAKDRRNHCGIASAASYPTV
T4 sequence (P25774 115-331): as the sequence (P25774 115-331) above

## CC[C@H](C)[C@@H]([C@@H](CC(=O)N1CCC[C@H]1[C@H](OC)[C@@H](C)C(=O)N[C@H](C)[C@@H](O)c1ccccc1)OC)N(C)C(=O)[C@@H](NC(=O)[C@H](C(C)C)N(C)C(=O)OCc1ccc(NC(=O)[C@@H](CCC(=O)OC)NC(=O)[C@H](CCCCNC(=O)OCc2ccccc2Cl)NC(=O)[C@H](CCCNC(N)=O)NC(=O)[C@H](Cc2c(F)c(F)c(F)c(F)c2F)NC(C)=O)cc1)C(C)C [313D, Ac-Phe(F5)-Cit-Lys(2ClZ)-DGlu(Me)-PABC-MMAE] (Ac-[Phe(F5)][Cit]K(ClZ)[dE](OMe)[PABC][NMeV]V[Dil][Dolaproine]-X1; N-terminus and C-terminus assumed)
Cathepsin S [1]
  cleavage / free MMAE release by cathepsin S: remained stable

## CC(C)C[C@H](NC(=O)[C@H]1O[C@@H]1C(=O)O)C(=O)NCCCCN=C(N)N [E-64, reference compound]
Cathepsin B [2]; pH 5.5, read-out: kobs/[I] Cathepsin B
  kinact/KI: 81200 M⁻¹ s⁻¹
Cathepsin L [3]; pH 5.5, read-out: kobs/[I] Cathepsin L
  kinact/KI: 65100 M⁻¹ s⁻¹
Cathepsin S [4]; pH 5.5, Table S8, AOMK inhibitors, pseudo-first-order conditions
  kinact/KI: 132000 M⁻¹ s⁻¹

## CC[C@H](C)[C@@H]([C@@H](CC(=O)N1CCC[C@H]1[C@H](OC)[C@@H](C)C(=O)N[C@H](C)[C@@H](O)c1ccccc1)OC)N(C)C(=O)[C@@H](NC(=O)[C@H](C(C)C)N(C)C(=O)OCc1ccc(NC(=O)[C@H](CCC(=O)OC)NC(=O)[C@H](CCCCNC(=O)OCc2ccccc2Cl)NC(=O)[C@H](CCCNC(N)=O)NC(=O)[C@H](Cc2c(F)c(F)c(F)c(F)c2F)NC(C)=O)cc1)C(C)C [compound 313, Ac-Phe(F5)-Cit-Lys(2ClZ)-Glu(Me)-PABC-MMAE] (Ac-[Phe(F5)][Cit]K(ClZ)E(OMe)[PABC][NMeV]V[Dil][Dolaproine]-X1; N-terminus and C-terminus assumed)
Cathepsin S [1]
  cleavage / free MMAE release by cathepsin S: selectively and efficiently hydrolyzed only by cathepsin S

## Ac-Met(O2)-Cit-NptGly-Glu(Me)-AOMK [JN-1]
[5]
  effect of inhibitor pretreatment on probe binding: did not influence probe binding

## Ac-Phe(F5)-Cit-Lys(2ClZ)-Glu(Me)-AOMK [JN-7]
[5]
  effect of inhibitor pretreatment on probe binding: did not influence probe binding

## Ac-Phe(F5)-Thz-2Aoc-Gln-ACC [OG-200]
Cathepsin V [6]
  Km: 4.31 µM
  kcat Cathepsin V: 0,20
Cathepsin S [7]
  Km: 1.63 µM
  kcat Cathepsin S: 0,15
Cathepsin B [8]
  Km: 20.3 µM
  kcat Cathepsin B: 0,30
Cathepsin L [9]
  Km: 15.9 µM
  kcat Cathepsin L: 0,02

## Ac-Phe(F5)-Thz-2Aoc-Glu(Me)-ACC [OG-201]
Cathepsin V [6]
  Km: 11.2 µM
  kcat Cathepsin V: 0,29
Cathepsin S [7]
  Km: 3.04 µM
  kcat Cathepsin S: 0,65
Cathepsin B [8]
  Km: 15.8 µM
  kcat Cathepsin B: 0,46
Cathepsin L [9]
  Km: 12.1 µM
  kcat Cathepsin L: 0,03

## BODIPY-PEG(4)-Met(O2)-Cit-NptGly-Glu(Me)-AOMK [OG-236]
Cathepsin B [2]
  kobs/[I] Cath B: 3,800 M^-1s^-1
Cathepsin V [10]
  kobs/[I] Cath V: 2,170 M^-1s^-1
Cathepsin L [3]
  kobs/[I] Cath L: < 500 M⁻¹ s⁻¹
Cathepsin S [4]
  kobs/[I] Cath S: 78,300 M^-1s^-1
  Selectivity S to B: 21
  Selectivity S to V: 36

## BODIPY-PEG(4)-Phe(F5)-Cit-Lys(2ClZ)-Glu(Me)-AOMK [OG-235]
Cathepsin B [2]
  kobs/[I] Cath B: 7,700 M^-1s^-1
Cathepsin V [10]
  kobs/[I] Cath V: 1,640 M^-1s^-1
Cathepsin L [3]
  kobs/[I] Cath L: < 500 M⁻¹ s⁻¹
Cathepsin S [4]
  kobs/[I] Cath S: 1,140,000 M^-1s^-1
  Selectivity S to B: 148
  Selectivity S to V: 695
Cathepsin S [4]; cathepsin S kobs/[I], probe vs parent inhibitor
  higher potency than the unlabeled parent inhibitor: over 2 fold
Cathepsin S [4]; kobs/[I] based
  selectivity for cathepsin S over cathepsin L: > 2000 fold
  selectivity for cathepsin S over cathepsin V: > 500 fold
